Source: ChEMBL document CHEMBL3137667, “[Drug-induced liver injury; fourteenth updated edition of the bibliographic database of liver injuries and related drugs]” (Gastroenterol Clin Biol, 2004)

Key:
[1] = Times to onset, minimal and maximal, observed in the indexed observations. [column 'DELAI' in source]; conditions: human
[2] = human, serum
[3] = Proposed mechanism(s) of liver damage. [column 'MEC' in source]; conditions: human
[4] = human
[5] = human; remark: listed apart in the source
[6] = human; remark: listed apart in the source
[7] = human; remark: listed apart in the source
[8] = human, serum; remark: listed apart in the source
[9] = human, serum, 4383 h
[10] = Highest frequency of moderate liver toxicity observed during clinical trials, expressed as a percentage. [column '% BIOL' in source]; conditions: human
[11] = human; remark: listed apart in the source
[12] = human; remark: listed apart in the source
[13] = human; remark: listed apart in the source
[14] = human; remark: listed apart in the source
[15] = human; remark: listed apart in the source
[16] = Highest frequency of acute liver toxicity observed during clinical trials, expressed as a percentage. [column '% AIGUE' in source]; conditions: human
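Wherever Hepatotoxicity (association with vascular disease) is given: count of indexed literature references reporting vascular liver injury in humans, e.g. peliosis hepatitis, hepatic veno-occlusive disease or Budd-Chiari syndrome.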
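Wherever Hepatotoxicity (benign tumour) is given: value is a count of indexed literature references citing a benign tumour confirmed by histopathology.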
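Wherever Hepatotoxicity (choleostasis) is given: human cholestatic liver injury, shown by histopathology or by peak ALT or AST elevation over alkaline phosphatase ratio below 2, value counts indexed literature reports.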
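Wherever Hepatotoxicity (chronic liver disease) is given: chronic liver injury confirmed by histopathology or persistently raised serum aminotransferase activity beyond 6 months, value given as the count of indexed literature references.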
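Wherever Hepatotoxicity (cirrhosis) is given: value is a count of indexed literature references reporting cirrhosis confirmed by histopathology.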
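Wherever Hepatotoxicity (cytolytic) is given: human cytolytic liver injury, shown by histopathology or by a ratio above 5 of peak ALT or AST elevation to alkaline phosphatase elevation, value counts indexed references.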
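Wherever Hepatotoxicity (granulomatous hepatitis) is given: value is a count of indexed literature references reporting granulomatous liver disease confirmed by histopathology.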
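Wherever Hepatotoxicity (malignant tumour) is given: malignant tumour confirmed by histopathology, value gives the count of indexed literature references reporting it.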
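Wherever Hepatotoxicity (severe hepatitis) is given: human clinical data: severe hepatitis, meaning potentially life-threatening liver failure or clinically observed cases, the value counts how many indexed literature references report it.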
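Wherever Hepatotoxicity (steatosis) is given: steatosis confirmed by histopathology, value is the count of indexed references.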

Molecule | Hepatotoxicity (time to onset) [1] | Hepatotoxicity (moderate) [2] | Hepatotoxicity (mechanism) [3] | Hepatotoxicity (cytolytic) [4] | Hepatotoxicity (benign tumour) [5] | Hepatotoxicity (cirrhosis) [6] | Hepatotoxicity (association with vascular disease) [7] | Hepatotoxicity (acute) [8] | Hepatotoxicity (chronic liver disease) [9] | Hepatotoxicity (moderate) [10] [%] | Hepatotoxicity (choleostasis) [11] | Hepatotoxicity (severe hepatitis) [12] | Hepatotoxicity (malignant tumour) [13] | Hepatotoxicity (steatosis) [14] | Hepatotoxicity (granulomatous hepatitis) [15] | Hepatotoxicity (acute) [16] [%] | also measured
NCC1(CC(=O)O)CCCCC1 [GABAPENTIN] | 9 days - 4 months | 2 | Allergic | 1 | 0 | 0 | 0 | 5 | 0 | 2.4 | 3 | 0 | 0 | 1 | 0 | 2.4 | 
BCG VACCINE | 1 hour - 2 years | 7 | Allergic | 2 | 0 | 0 | 0 | 6 | 0 | 10 | 2 | 0 | 0 | 0 | 32 | 0.9 | 
CNNCc1ccc(C(=O)NC(C)C)cc1 [PROCARBAZINE] | 2 weeks - 3 weeks | 0 | Allergic | 2 | 0 | 0 | 0 | 2 | 0 | 0 | 0 | 0 | 1 | 0 | 1 | 1 | 
CN(C)[C@@H]1C(O)=C(C(N)=O)C(=O)[C@@]2(O)C(O)=C3C(=O)c4c(O)ccc(Cl)c4[C@@H](O)[C@H]3C[C@@H]12 [DEMECLOCYCLINE] | 2 days - 2 months | 0 | Dose-dependant | 1 | 0 | 0 | 0 | 1 | 0 | 0 | 0 | 2 | 0 | 1 | 0 | 0 | 
CS(=O)(=O)c1ccc(C2=C(c3ccccc3)C(=O)OC2)cc1 [ROFECOXIB] | 9 weeks | 1 | Allergic | 1 | 0 | 0 | 0 | 2 | 0 | 3.2 | 1 | 0 | 0 | 0 | 0 | 0 | 
O=C(O)c1ccccc1O.O=C(O)c1ccccc1O.O=C(O)c1ccccc1O | 3 days | 0 |  |  | 0 | 0 | 0 | 1 | 0 |  |  |  | 0 | 0 |  |  | Hepatotoxicity (mechanism) ([3]; Liver): Allergic; Hepatotoxicity (cytolytic) ([4]; Liver): 1; Hepatotoxicity (moderate) ([10]; Liver): 0%; Hepatotoxicity (choleostasis) ([11]; Liver): 0; Hepatotoxicity (severe hepatitis) ([12]; Liver): 1; Hepatotoxicity (granulomatous hepatitis) ([15]; Liver): 0; Hepatotoxicity (acute) ([16]; Liver): 0%
CC(C(=O)O)c1ccc2c(c1)[nH]c1ccc(Cl)cc12 (stereo not given) [CARPROFEN] | 1 week - 1 month | 5 | Dose-dependant | 0 | 0 | 0 | 0 | 0 | 0 | 56.3 | 0 | 0 | 0 | 0 | 0 | 0 | 
COc1cnc(NS(=O)(=O)c2ccc(N)cc2)nc1 | 10 days | 0 | Allergic | 0 | 0 | 0 | 0 | 2 | 0 | 0 | 1 | 0 | 0 | 0 | 0 | 0 | 
CC1(C)NC(=O)N(c2ccc([N+](=O)[O-])c(C(F)(F)F)c2)C1=O [NILUTAMIDE] | 1 month - 4 months | 5 |  |  | 0 | 0 | 0 | 5 | 0 |  |  |  | 0 | 0 |  |  | Hepatotoxicity (mechanism) ([3]; Liver): Reactive metabolite; Hepatotoxicity (cytolytic) ([4]; Liver): 4; Hepatotoxicity (moderate) ([10]; Liver): 8%; Hepatotoxicity (choleostasis) ([11]; Liver): 0; Hepatotoxicity (severe hepatitis) ([12]; Liver): 4; Hepatotoxicity (granulomatous hepatitis) ([15]; Liver): 0; Hepatotoxicity (acute) ([16]; Liver): 0%
CC1CCc2cc(F)cc3c(=O)c(C(=O)O)cn1c23 (stereo not given) [FLUMEQUINE] | 24 days | 0 | Allergic | 0 | 0 | 0 | 0 | 0 | 0 | 0 | 0 | 0 | 0 | 0 | 1 | 0 | 
